Non-standard residues stand in square brackets, D forms with d. Residues, ends and D or L forms follow the SMILES beside them. Phe(4-CONH2) = NC(=O)c1ccc(C[C@H](N)C(=O)O)cc1; Pro(cis-4-F) = O=C(O)[C@@H]1C[C@H](F)CN1; hPhe = N[C@@H](CCc1ccccc1)C(=O)O; hSer = N[C@@H](CCO)C(=O)O

By IC50 is commonly meant the point on the concentration scale where inhibition reaches its midpoint. A low value points to greater potency.

Sequence of Kelch-like ECH-associated protein 1 (Q14145 whole entry, the tested form may be a part): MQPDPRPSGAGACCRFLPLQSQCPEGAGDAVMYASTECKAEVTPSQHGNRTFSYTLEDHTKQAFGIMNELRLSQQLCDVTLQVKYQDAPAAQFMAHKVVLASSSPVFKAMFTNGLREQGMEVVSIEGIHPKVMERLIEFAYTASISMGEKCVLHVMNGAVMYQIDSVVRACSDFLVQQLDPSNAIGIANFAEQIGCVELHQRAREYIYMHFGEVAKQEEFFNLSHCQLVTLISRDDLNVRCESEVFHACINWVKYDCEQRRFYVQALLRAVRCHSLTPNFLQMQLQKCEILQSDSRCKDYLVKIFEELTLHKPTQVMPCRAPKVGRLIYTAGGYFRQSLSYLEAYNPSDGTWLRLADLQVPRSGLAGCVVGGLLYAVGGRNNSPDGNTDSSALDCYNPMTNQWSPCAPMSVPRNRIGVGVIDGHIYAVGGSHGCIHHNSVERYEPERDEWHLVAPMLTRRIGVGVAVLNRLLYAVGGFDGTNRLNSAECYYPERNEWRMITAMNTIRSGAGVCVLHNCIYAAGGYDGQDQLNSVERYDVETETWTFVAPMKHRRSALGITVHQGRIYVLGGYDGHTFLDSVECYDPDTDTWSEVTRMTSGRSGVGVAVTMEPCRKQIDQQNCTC

The experiment addresses Kelch-like ECH-associated protein 1 (Homo sapiens, UniProt Q14145). Nature of the experiment: Binding affinity to human KEAP1 Kelch domain (322 to 609 residues) incubated for 60 mins by TR-FRET assay. Background: TR-FRET usually uses a lanthanide donor and a delayed reading to cut background.
Compound `CC(=O)N[C@@H](CC(C)C)C(=O)N[C@@H](CC(=O)O)C(=O)N[C@@H](CCC(=O)O)C(=O)N[C@@H](CCC(=O)O)C(=O)N[C@H](C(=O)NCC(=O)N[C@@H](Cc1ccc(C(N)=O)cc1)C(=O)N[C@@H](Cc1ccccc1)C(=O)N[C@@H](CC(C)C)C(N)=O)[C@@H](C)O` (Ac-LDEETG[Phe(4-CONH2)]FL-NH2) returned an IC50 of more than 64 µM.

On to `CC(=O)N[C@@H](CC(C)C)C(=O)N[C@@H](CC(=O)O)C(=O)N[C@@H](CCC(=O)O)C(=O)N[C@@H](CCC(=O)O)C(=O)N[C@H](C(=O)NCC(=O)N[C@@H](CCO)C(=O)N[C@@H](Cc1ccccc1)C(=O)N[C@@H](CC(C)C)C(N)=O)[C@@H](C)O` (Ac-LDEETG[hSer]FL-NH2), for which the IC50 was more than 50 µM. As to `CC(=O)N[C@@H](CC(C)C)C(=O)N[C@@H](CC(=O)O)C(=O)N[C@@H](CCC(=O)O)C(=O)N[C@@H](CCc1ccccc1)C(=O)N[C@H](C(=O)NCC(=O)N[C@@H](CCC(=O)O)C(=O)N[C@@H](Cc1ccccc1)C(=O)N[C@@H](CC(C)C)C(N)=O)[C@@H](C)O` (Ac-LDE[hPhe]TGEFL-NH2), the IC50 was more than 64 µM. In the case of `CC(=O)N[C@@H](CC(C)C)C(=O)N[C@@H](CC(=O)O)C(=O)N1C[C@@H](F)C[C@H]1C(=O)N[C@@H](CCC(=O)O)C(=O)N[C@@H](Cc1ccccc1)C(=O)NCC(=O)N[C@@H](CCC(=O)O)C(=O)N[C@@H](Cc1ccccc1)C(=O)N[C@@H](CC(C)C)C(N)=O` (Ac-LD[Pro(cis-4-F)]EFGEFL-NH2) it was more than 64 µM; in that of Ac-LDEQTGEFL-NH2, more than 64 µM.

These data come from ChEMBL document CHEMBL4665857, “Optimization of linear and cyclic peptide inhibitors of KEAP1-NRF2 protein-protein interaction” (Bioorg Med Chem, 2020).
